Laboratory results: the supplement of paper PMC13380429

What was measured:
Settings in all cases: 72 h
U2OS [1] = assay: drug sensitivity score (DSS) for viability; higher = more toxic; extreme values may be limits of the assay
Calu-3 [2] = assay: as above
HepG2 [3] = assay: as above
Vero E6 [4] = assay: as above
Caco-2 [5] = assay: as above
U2OS [6] = assay: relative viability EC50 (midpoint between 100% and the lowest measured viability); higher = less toxic
Calu-3 [7] = assay: as above
HepG2 [8] = assay: as above
Vero E6 [9] = assay: as above
U2OS [10] = assay: cell viability relative to DMSO; higher = less toxic
Calu-3 [11] = assay: as above
HepG2 [12] = assay: as above
Vero E6 [13] = assay: as above
Caco-2 [14] = assay: as above
Caco-2 [15] = assay: relative viability EC50 (midpoint between 100% and the lowest measured viability); higher = less toxic

| SMILES | drug sensitivity score (U2OS [1]) | drug sensitivity score (Calu-3 [2]) | drug sensitivity score (HepG2 [3]) | drug sensitivity score (Vero E6 [4]) | drug sensitivity score (Caco-2 [5]) | relative viability EC50 (U2OS [6]) [µM] | relative viability EC50 (Calu-3 [7]) [µM] | relative viability EC50 (HepG2 [8]) [µM] | relative viability EC50 (Vero E6 [9]) [µM] | cell viability (U2OS [10]; 1 nM) [%] | cell viability (U2OS [10]; 10 nM) [%] | cell viability (U2OS [10]; 100 nM) [%] | cell viability (U2OS [10]; 1000 nM) [%] | cell viability (U2OS [10]; 10000 nM) [%] | cell viability (Calu-3 [11]; 1 nM) [%] | cell viability (Calu-3 [11]; 10 nM) [%] | cell viability (Calu-3 [11]; 100 nM) [%] | cell viability (Calu-3 [11]; 1000 nM) [%] | cell viability (Calu-3 [11]; 10000 nM) [%] | cell viability (HepG2 [12]; 1 nM) [%] | cell viability (HepG2 [12]; 10 nM) [%] | cell viability (HepG2 [12]; 100 nM) [%] | cell viability (HepG2 [12]; 1000 nM) [%] | cell viability (HepG2 [12]; 10000 nM) [%] | cell viability (Vero E6 [13]; 1 nM) [%] | cell viability (Vero E6 [13]; 10 nM) [%] | cell viability (Vero E6 [13]; 100 nM) [%] | cell viability (Vero E6 [13]; 1000 nM) [%] | cell viability (Vero E6 [13]; 10000 nM) [%] | cell viability (Caco-2 [14]; 1 nM) [%] | cell viability (Caco-2 [14]; 10 nM) [%] | cell viability (Caco-2 [14]; 100 nM) [%] | cell viability (Caco-2 [14]; 1000 nM) [%] | cell viability (Caco-2 [14]; 10000 nM) [%] | relative viability EC50 (Caco-2 [15]) [µM] |
| --- | --- | --- | --- | --- | --- | --- | --- | --- | --- | --- | --- | --- | --- | --- | --- | --- | --- | --- | --- | --- | --- | --- | --- | --- | --- | --- | --- | --- | --- | --- | --- | --- | --- | --- | --- |
| Cc1c2oc3c(C)ccc(C(=O)N[C@@H]4C(=O)N[C@@H](C(C)C)C(=O)N5CCC[C@H]5C(=O)N(C)CC(=O)N(C)[C@@H](C(C)C)C(=O)O[C@@H]4C)c3nc-2c(C(=O)N[C@@H]2C(=O)N[C@@H](C(C)C)C(=O)N3CCC[C@H]3C(=O)N(C)CC(=O)N(C)[C@@H](C(C)C)C(=O)O[C@@H]2C)c(N)c1=O [actinomycin-d] | 29.2 | 25.9 | 36.5 | 20.1 | 15.2 | 0.0296 | 0.0152 | 0.0085 | 0.166 | 105 | 65.9 | 31.5 | 0.7 | 1 | 102 | 71.4 | 31.7 | 24.5 | 36.7 | 113 | 41.4 | 15.9 | 3.1 | 5.1 | 101 | 102 | 79.5 | 6.9 | 7.9 | 95.6 | 77.5 | 58.6 | 61 | 65.9 |  |
| CCN(CCCc1ccccc1)CCCc1ccccc1 [alverine] | 0 |  | 1.1 | 0 | 0 | > 10 |  | > 10 | > 10 | 102 | 100 | 101 | 97.8 | 102 |  |  |  |  |  | 107 | 87.3 | 96.7 | 98.1 | 76.2 | 97.2 | 93.4 | 100 | 97.9 | 100 | 101 | 93.6 | 99.2 | 97.8 | 94.8 | > 10 |
| COc1ccccc1OCCNCC(O)COc1cccc2[nH]c3ccccc3c12 (centres undefined) [carvedilol] | 0 | 0 | 0.1 | 0 |  | > 10 | > 10 | > 10 | > 10 | 96.4 | 100 | 103 | 93.1 | 92.3 | 97 | 92.2 | 102 | 89.2 | 97.4 | 99.3 | 108 | 88.7 | 100 | 86.6 | 100 | 102 | 94.2 | 107 | 94.7 |  |  |  |  |  |  |
| NCc1ccccc1CC(=O)N[C@@H]1C(=O)N2C(C(=O)O)=C(CSc3nnnn3CC(=O)O)CS[C@H]12 [ceforanide] | 0 |  | 0 | 0 | 0 | > 10 |  | > 10 | > 10 | 96.3 | 97.3 | 100 | 102 | 103 |  |  |  |  |  | 99.5 | 106 | 109 | 98 | 106 | 97.3 | 98 | 96.8 | 93.8 | 103 | 88.4 | 92.9 | 102 | 99.3 | 100 | > 10 |
| Cc1c2oc3c(C)ccc(C(=O)N[C@@H]4C(=O)N[C@H](C(C)C)C(=O)N5CCC[C@H]5C(=O)N(C)CC(=O)N(C)[C@@H](C(C)C)C(=O)O[C@@H]4C)c3nc-2c(C(=O)N[C@@H]2C(=O)N[C@H](C(C)C)C(=O)N3CCC[C@H]3C(=O)N(C)CC(=O)N(C)[C@@H](C(C)C)C(=O)O[C@@H]2C)c(N)c1=O [dactinomycin] | 27.7 | 22.9 | 35.8 | 18.7 | 16.4 | 0.0387 | 0.0187 | 0.0079 | 0.248 | 98.8 | 74.2 | 34.2 | 1.1 | 1.3 | 99.5 | 75 | 41 | 29.7 | 37.4 | 99 | 42.5 | 15.8 | 4.4 | 4.1 | 101 | 104 | 91.9 | 3.5 | 8.7 | 108 | 83.7 | 54.8 | 63.4 | 57.4 |  |
| CC(=O)NC[C@H]1CN(c2ccc(N3CCN(C(=O)CO)CC3)c(F)c2)C(=O)O1 [eperezolid] | 0 |  | 1.7 | 0 | 0 | > 10 |  | > 10 | > 10 | 105 | 99.4 | 99.3 | 96.4 | 98.6 |  |  |  |  |  | 99.1 | 98.7 | 89.1 | 88.2 | 81.1 | 96.3 | 99.3 | 97.5 | 97.1 | 93.5 | 98.6 | 96.9 | 102 | 101 | 102 | > 10 |
| CON(C)C(=O)N1N=C(c2cc(F)ccc2F)S[C@@]1(CCCN)c1ccccc1 [filanesib] | 16.7 | 2 | 26.8 | 20.2 | 12.9 | 0.0424 | > 10 | 0.0056 | 0.0172 | 98.2 | 97.8 | 50.8 | 43.5 | 43.8 | 97 | 104 | 87.8 | 88.1 | 79.3 | 98 | 50 | 35.1 | 34.1 | 34.4 | 106 | 81.9 | 45.1 | 46.4 | 40.7 | 96.7 | 76.6 | 68.7 | 68.4 | 62.1 |  |
| CC(C)C[C@H](NC(=O)[C@@H](COC(C)(C)C)NC(=O)[C@H](Cc1ccc(O)cc1)NC(=O)[C@H](CO)NC(=O)[C@H](Cc1c[nH]c2ccccc12)NC(=O)[C@H](Cc1cnc[nH]1)NC(=O)[C@@H]1CCC(=O)N1)C(=O)N[C@@H](CCCNC(=N)N)C(=O)N1CCC[C@H]1C(=O)NNC(N)=O [goserelin-acetate] | 0 | 0 | 0 | 0.1 | 0.6 | > 10 | > 10 | > 10 | > 10 | 107 | 101 | 99.2 | 98.7 | 96.7 | 99.4 | 97.7 | 96.1 | 95.4 | 104 | 108 | 92.9 | 100 | 92.1 | 98.7 | 91 | 104 | 104 | 95.3 | 88.7 | 96.9 | 106 | 96.6 | 73.5 | 94.1 |  |
| COc1ccccc1OC(=O)c1ccccc1OC(C)=O [guacetisal] | 0 | 0 | 0 | 0 |  | > 10 | > 10 | > 10 | > 10 | 97.3 | 96.8 | 99.2 | 104 | 99 | 105 | 90.9 | 108 | 102 | 97.4 | 97.1 | 115 | 104 | 104 | 88.4 | 101 | 105 | 101 | 102 | 98.9 |  |  |  |  |  |  |
| CC(C)(C)NC(=O)[C@@H]1CN(Cc2cccnc2)CCN1C[C@@H](O)C[C@@H](Cc1ccccc1)C(=O)N[C@H]1c2ccccc2C[C@H]1O [indinavir] | 0 | 0 | 1.4 | 0 |  | > 10 | > 10 | > 10 | > 10 | 98.4 | 98.2 | 92.5 | 103 | 93.5 | 97 | 107 | 98.4 | 102 | 97.9 | 99.4 | 88.7 | 109 | 93.3 | 79.8 | 117 | 78 | 97.6 | 104 | 89.9 |  |  |  |  |  |  |
| O=NN(CCCl)C(=O)NC1CCCCC1 [lomustine] | 0 | 0 | 0 | 0 | 3.2 | > 10 | > 10 | > 10 | > 10 | 98.5 | 97.1 | 97.5 | 102 | 94 | 87.1 | 102 | 88.9 | 104 | 96.1 | 102 | 95 | 99.2 | 104 | 98.7 | 97.9 | 99.1 | 99.6 | 92.4 | 94.6 | 89.7 | 78.5 | 101 | 93.2 | 59 |  |
| CC(=O)Oc1ccccc1C(=O)Nc1ncc([N+](=O)[O-])s1 [nitazoxanide] | 0 | 0 | 2.8 | 0 | 1.6 | > 10 | > 10 |  | > 10 | 99.2 | 98.5 | 101 | 93.3 | 91.4 | 102 | 103 | 107 | 99.1 | 98.8 | 97.1 | 95.6 | 94.5 | 91 | 65.3 | 98.2 | 98.7 | 106 | 102 | 96.9 | 97.3 | 98.8 | 102 | 104 | 61.7 |  |
| O=C(/C=C/C=C/c1ccc2c(c1)OCO2)N1CCCCC1 [piperine] | 0 | 0 | 0 | 0 | 1.6 | > 10 | > 10 | > 10 | > 10 | 95.1 | 97.6 | 91.2 | 102 | 97.8 | 92.4 | 103 | 101 | 106 | 90.1 | 93.7 | 91.8 | 86.7 | 84.6 | 95.9 | 108 | 102 | 109 | 92.5 | 93.2 | 94.4 | 106 | 96.6 | 97.4 | 70.9 |  |
| Fc1ccc(Cn2c(NC3CCNCC3)nc3ccccc32)cc1 [tecastemizole] | 0 | 0 | 1.4 | 0 | 0.8 | > 10 | > 10 | > 10 | > 10 | 95 | 98 | 96.9 | 98.2 | 103 | 90.7 | 99.2 | 107 | 99.5 | 102 | 106 | 96.6 | 114 | 83.9 | 86.2 | 104 | 95.6 | 101 | 90 | 98.9 | 97.8 | 98.1 | 99 | 106 | 73.3 |  |
